According to patent US5989874A, “Humectant, antistatic agent, dispersant and film-forming agent having polysaccharide as active principle, preparation process of polysaccharides, and Kliebsiella ocytoca TNM-3 strain” (Tayca Corporation, priority 1995, dated 1999):
Blank lines part the entries; values can stand above or below the compound they belong to.

How the values were obtained:
[1] = Moisture retention in high-humidity environment; type: physicochemical; settings: relative humidity 92.9%, 30° C., 3 days
Protocol: The above operations were carried out at a constant temperature of 30° C.

[2] = Moisture retainability in low-humidity environment; type: physicochemical; settings: relative humidity 20%, 20° C., 3 days
Protocol: The above operations were carried out at a constant temperature of 20° C.
The sample weight was measured periodically and he moisture retention percentagewas calculated from the following equation.
Moisture retention percentage(%)=(A-B)/B×100 (wherein A is sample weight when it became constant, and B is dry sample weight).

[3] = test system: mushroom-derived tyrosinase; assay: Tyrosinase-inhibitory activity; type: biochemical; settings: relative values to kojic acid = 1.0; 0.1 ml of 300 μg/ml solution; L-tyrosine; 25° C., 10 minutes, pH 6.5
Protocol: Absorbance at 475 nm was measured by an ultraviolet visible spectrophotometer. The above process was repeated without adding the polysaccharide, and the absorbance was measured in the similar way and given as blank. The above process was further carried out using the polysaccharide obtained in Example 3. […] The tyrosinase inhibition rate was calculated from the following equation. […] Tyrosinase inhibition rate=(OD2 -OD1)/OD2 ×100 wherein OD1 is absorbance at 475 nm in case the specimen was added, and OD2 is absorbance at 475 nm in case no specimen was added (blank).

skin = settings: 4% (w/v) aqueous solution

Material retention percentage (moisture retention percentage) [1]: 139.1% | Moisture retention [2]: 6.9%
Compound: OCC(O)CO [Glycerol, glycerol]

Tyrosinase inhibition rate [3]: 1.0
Compound: O=c1cc(CO)occ1O [Kojic acid, kojic acid]

Compound: CCCCCCCCCCCCOS(=O)(=O)[O-].[Na+] [sodium lauryl sulfate]
primary irritation index (skin): 4.0
